These results are taken from patent US4996217A, “Pyridyl-substituted imidazoles, compositions containing same and methods of use thereof” (Tanabe Seiyaku Company, Ltd., priority 1986, dated 1991).

SMILES strings stand for the structures.

For the first test, the system named is gastrin-induced gastric acid secretion. The test is described as follows: effect on gastrin-induced gastric acid secretion, oral administration to rats. The settings on record: dose of 30 mg/kg. It is filed as in vivo.
For the molecule `CCN(CC)c1ccccc1C[S+]([O-])c1nc2c(n1-c1ccccn1)CCC2` (stereo not drawn) [1,4,5,6-tetrahydro-1-(2-pyridyl)-2-(2-(diethylamino)benzylsulfinyl)cyclopenta(d)imidazole], the “decrease in gastric acid secretion as compared with non-administered group of rats” value is on record as “more than 70%”.
In the case of `[O-][S+](Cc1ccccc1-n1cccc1)c1nccn1-c1ccccn1` (stereo not drawn) [1-(2-pyridyl)-2-(2-(1-pyrrolyl)-benzylsulfinyl)imidazole], the “decrease in gastric acid secretion as compared with non-administered group of rats” value is reported as “more than 70%”.
Still for that read-out and setting: with `Cc1cccnc1-n1ccnc1[S+]([O-])Cc1ccccc1N(C)C` (stereo not drawn) [1-(3-methyl-2-pyridyl)-2-(2-(dimethylamino)benzylsulfinyl)imidazole] the entry was “more than 70%”.

The target in another test is T1, H+/K+ ATPase (Sus scrofa, UniProt P19156).
T1 construct: prepared from the porcine gastric mucosa; from tissue; host or cells: porcine gastric mucosa
T1 sequence (P19156 2-1034 limits assumed): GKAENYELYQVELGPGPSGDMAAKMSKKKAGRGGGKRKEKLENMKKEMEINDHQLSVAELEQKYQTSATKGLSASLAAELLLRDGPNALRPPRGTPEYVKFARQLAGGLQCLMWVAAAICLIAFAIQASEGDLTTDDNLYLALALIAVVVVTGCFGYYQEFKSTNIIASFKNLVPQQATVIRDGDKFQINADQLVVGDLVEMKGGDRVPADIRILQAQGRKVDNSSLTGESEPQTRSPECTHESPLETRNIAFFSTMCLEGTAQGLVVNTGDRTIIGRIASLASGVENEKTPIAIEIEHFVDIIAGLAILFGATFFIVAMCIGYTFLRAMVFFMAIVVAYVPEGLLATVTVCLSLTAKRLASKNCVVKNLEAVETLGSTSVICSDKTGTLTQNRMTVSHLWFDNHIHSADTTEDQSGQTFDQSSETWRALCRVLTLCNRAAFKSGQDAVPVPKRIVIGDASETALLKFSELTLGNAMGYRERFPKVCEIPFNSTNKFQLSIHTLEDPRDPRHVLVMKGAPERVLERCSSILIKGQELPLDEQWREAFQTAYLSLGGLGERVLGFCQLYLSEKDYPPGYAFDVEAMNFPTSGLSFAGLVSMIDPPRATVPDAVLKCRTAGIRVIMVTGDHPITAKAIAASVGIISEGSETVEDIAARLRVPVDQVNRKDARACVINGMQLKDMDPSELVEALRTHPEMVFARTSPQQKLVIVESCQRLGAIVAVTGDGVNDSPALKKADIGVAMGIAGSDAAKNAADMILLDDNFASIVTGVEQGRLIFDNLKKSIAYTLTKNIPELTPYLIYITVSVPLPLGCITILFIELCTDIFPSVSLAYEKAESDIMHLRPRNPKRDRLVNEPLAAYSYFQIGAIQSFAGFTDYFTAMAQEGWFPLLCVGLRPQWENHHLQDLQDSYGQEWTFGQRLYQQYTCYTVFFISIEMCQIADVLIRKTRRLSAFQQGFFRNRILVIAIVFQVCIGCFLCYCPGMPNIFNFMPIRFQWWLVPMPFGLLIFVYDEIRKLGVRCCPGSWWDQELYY
T1 sequence (P18434 whole entry partner): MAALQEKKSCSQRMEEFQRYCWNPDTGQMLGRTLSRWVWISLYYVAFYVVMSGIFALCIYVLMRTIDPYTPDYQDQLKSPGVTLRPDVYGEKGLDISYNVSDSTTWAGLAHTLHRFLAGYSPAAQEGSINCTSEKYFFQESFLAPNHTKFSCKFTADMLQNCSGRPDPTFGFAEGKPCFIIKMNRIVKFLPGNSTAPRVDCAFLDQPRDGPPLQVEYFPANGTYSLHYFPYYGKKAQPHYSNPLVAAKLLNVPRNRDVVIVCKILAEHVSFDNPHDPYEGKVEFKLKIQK
The test is described as follows: effect on the enzyme activity of H+/K+ ATPase prepared from porcine gastric mucosa. The format is biochemical. The settings on record: read-out: IC50 (concentration required to induce 50% inhibition of H+/K+ ATPase enzymatic activity).
Consider `CCN(CC)c1ccccc1C[S+]([O-])c1nc2c(n1-c1ccccn1)CCC2` (stereo not drawn) [1,4,5,6-tetrahydro-1-(2-pyridyl)-2-(2-(diethylamino)benzylsulfinyl)cyclopenta(d)imidazole], for which the IC50 was roughly 10 µM.
`[O-][S+](Cc1ccccc1NC1CCCCC1)c1nccn1-c1ccccn1` (stereo not drawn) [1-(2-pyridyl)-2-(2-(cyclohexylamino)benzylsulfinyl)imidazole]: the IC50 was less than 10 µM.
Regarding `CCN(CC)c1ccccc1C[S+]([O-])c1nccn1-c1cc(OC)cc(C)n1` (stereo not drawn) [1-(4-methoxy-6-methyl-2-pyridyl)-2-(2-(diethylamino)benzylsulfinyl)imidazole], the IC50 is less than 10 µM.
